In this series the test system is BBB model (human cerebrovascular endothelial cells, pericytes, astrocytes). Kind of series: Barrier Function Evaluation Experiment 2: passage of the fluorescent dye through the BBB model in the fluidic device. The format is in vitro ADME. As to conditions: 200 μM Lucifer Yellow in first flow path; after 5 minutes (300 seconds) flow; measured in the neuron cell culture module in the second accommodation section, behind the BBB model; FIG. 25(b)/FIG. 26. As to the method: Specifically, a cubic polycarbonate three-dimensional frame having a side length of 5 mm was prepared, and a 1.5% agarose gel was poured into an opening of the three-dimensional frame and gelled to form a film-shaped window from the resulting hydrogel. The window was formed on each of five faces of the three-dimensional frame as described above. Thereafter, a clump of neurons differentiated from human brain-derived neural stem cells and Matrigel (registered trademark) being an un-gelled culture gel were injected into a cubic space within the three-dimensional frame, and the culture gel was gelled. Then, a hydrogel window was formed on a remaining face of the three-dimensional frame. Through the above, the cell culture module including neurons was produced. […]
An experiment was conducted for evaluation of the barrier function of the BBB model. […] After the fluorescent dye solution and the medium had flowed for 5 minutes (300 seconds), a fluorescence image and a phase-contrast image of the inside of the cell culture module were captured through the fluidic device.
FIGS. 24(a) and 24(b) each show a fluorescence image (left) of the inside of the cell culture module including neurons used in the control experiment, and an image (right) obtained by superimposing the fluorescence image and a phase-contrast image on one another. […]

As to Lucifer Yellow [fluorescent dye], the “relative luminance value on dashed line x-x' (corresponds to Lucifer Yellow concentration)” value is on record as “approximately 0.1”.

Values taken from US12655380B2, “Fluidic device” (UNIVERSITY PUBLIC CORPORATION OSAKA, priority 2019, dated 2026).
